What is called IC50 is the concentration needed to halve the response being measured.

Assay [1] deals with His-GST-TVMV-hRIPK1(1-324) (Homo sapiens (Human), UniProt Q13546). Put plainly: RIPK1 HTRF Binding Assay. As for the experimental part:
A solution was prepared containing 0.2 nM Anti GST-Tb (Cisbio, 61GSTTLB), 90.6 nM probe and 1 nM His-GST-TVMV-hRIPK1(1-324) in FRET Buffer (20 mM HEPES, 10 mM MgCl2, 0.015% Brij-35, 4 mM DTT, 0.05 mg/mL BSA). Using Formulatrix Tempest, the detection antibody/enzyme/probe solution ([…]) was dispensed into wells of a 1536 plate (Black Low Binding Polystyrene 1536 Plate (Corning, 3724)) containing 10 nL of compounds of interest at appropriate concentration in DMSO. The plate was incubated at rt for 1 h. FRET was measured using the EnVision plate reader (Excitation: 340 nm, Emission: 520 nm/[…]). Total signal (0% inhibition) was calculated from wells containing 10 nL DMSO only.
The coding region of human RIPK1(1-324) flanked by NdeI site at 5′ end and stop codon TGA and XhoI site at 3′ end was codon optimized and gene synthesized at GenScript USA Inc. (Piscataway, N.J.) and subcloned into a modified pFastBacl vector (Invitrogen, Carlsbad, Calif.) with N-terminal His-GST-TVMV tag, to generate His-GST-TVMV-hRIPK1(1-324)-pFB. The fidelity of the synthetic fragment was confirmed by sequencing.

The subject of assay [2] is MLKL phosphorylation in HT29-L23 human colorectal adenocarcinoma cells. As to the kind of experiment: MLKL Phosphorylation High-Content Assay. It counts as cell-based. The settings on record: necroptosis induced with TNFα, SMAC mimetic and Z-VAD, 6 h, read-out: pMLKL (IC50). As for the experimental part:
MLKL Phosphorylation High-Content Assay
HT29-L23 human colorectal adenocarcinoma cells were maintained in RPMI 1640 medium containing 10% heat-inactivated FBS, 1% Pennicilin-Streptomycin and 10 mM HEPES. Cells were seeded at 2,000 cells/well in 384 w tissue culture-treated microplates (Greiner #781090-3B) and incubated at 37° C. (5% CO2/95% O2) for two days. On the day of assay, the cells were treated with test compounds at final concentrations of 6.25 to 0.106 μM for 30 min at 37° C. (5% CO2/95% O2). Necroptopsis was induced using a mixture of human TNFα (35 ng/mL) (Peprotech #300-01A), SMAC mimetic (from US 2015/0322111 A1) (700 nM) and Z-VAD (140 nM) (BD pharmingen #51-6936). Following six hours incubation at 37° C. (5% CO2/95% O2), the cells were fixed with 4% formaldedye (ACROS 11969-0010) for 15 min at room temperature and then permeabilized with phoshpate buffered saline (PBS) containing 0.2% Triton-X-100 for 10 min. MLKL phosporylation was detected using anti-MLKL (phospho S358) antibody (Abcam # ab187091) (1:1000 dilution in Blocking Buffer [PBS supplemented with 0.1% BSA]) with overnight incubation at 4° C. After washing three times in PBS, goat anti-rabbit Alexa-488 (1:1000 dilution) (Life Technologies, A11008) and Hoechst 33342 (Life Technologies, H3570) (1:2000 dilution) in Blocking Buffer were added for 1 h at room temperature. Following another three cycles of washes in PBS, the microplates were sealed, and cellular images were acquired in the Cellomics ArrayScan VTI high-content imager equipped with an X1 camera. Fluorescent images were taken using a 10× objective and the 386-23 BGRFRN_BGRFRN and 485-20 BGRFRN_BGRFRN filter sets, for nuclei and MLKL phosphorylation, respectively. The image sets were analyzed using the Compartmental Analysis Bioapplication software (Cellomics). The level of MLKL phosphorylation was quantified as MEAN_CircRingAvgIntenRatio. […] The IC50 value was defined as the concentration of compound that produces 50% of the maximal inhibition. The data were fitted using the 4-parameter logistic equation to calculate the IC50 and Ymax values.

Where [3] appears, read: HTRF binding, 1 h at rt, read-out: RIPK1 (IC50).

Counter-ions that a name gives are not always drawn. Like-named read-outs stand apart in the source and are kept apart here. Bounds are passed on as bounds.

Chain of His-GST-TVMV-hRIPK1(1-324) (Q13546 1-324): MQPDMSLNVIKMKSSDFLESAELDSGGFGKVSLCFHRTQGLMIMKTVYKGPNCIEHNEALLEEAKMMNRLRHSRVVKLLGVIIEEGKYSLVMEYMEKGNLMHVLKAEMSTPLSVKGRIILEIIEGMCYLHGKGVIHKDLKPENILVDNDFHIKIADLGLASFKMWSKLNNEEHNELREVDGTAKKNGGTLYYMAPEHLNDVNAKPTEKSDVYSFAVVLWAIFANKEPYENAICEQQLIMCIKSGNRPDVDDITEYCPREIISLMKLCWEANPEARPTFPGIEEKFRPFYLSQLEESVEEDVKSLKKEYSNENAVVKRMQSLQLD

Turning to “3-{2- acetamidoimidazo [1,2-b]pyridazin- 6-yl}-2-fluoro- N-{[2-fluoro-5- (trifluoromethoxy) phenyl] (Â^2Hâ,,)methyl} benzamide [Example 430]”, the values for the IC50 in assay [1] (setting [3]) and in assay [2] were 3 nM and 9 nM, respectively.

In the case of “5-{2- acetamidoimidazo [1,2-b]pyridazin- 6-yl}-N-[(1R)- 1-[2-fluoro-5- (trifluoromethyl) phenyl](2,2,2-Â^2Hâ,f) ethyl]-2 methylbenzamide [Example 425]”, the results for the 50% inhibitory concentration (IC50) in assay [1] (setting [3]) and in assay [2] were > 5000 nM and 327 nM, respectively.

As for “5-{2- acetamidoimidazo [1,2-b]pyridazin- 6-yl}-N-{[2- fluoro-5- (trifluoromethoxy) phenyl] (Â^2Hâ,,)methyl}-2- methylbenzamide [Example 426]”, the IC50 in assay [1] (setting [3]) turned out to be 1 nM; in assay [2], 7 nM.

With “5-{2- acetamidoimidazo[1,2-b]pyridazin- 6-yl}-N-{[2-fluoro-5- (trifluoromethyl)phenyl]methyl}-2- methoxypyridine-3-carboxamide [Example 146]”, the figures for the IC50 in assay [1] (setting [3]) and in assay [2] were 17 nM and 48 nM, respectively.

“5-{2-acetamidoimidazo[1,2-b]pyridazin- 6-yl}-2-methoxy-6-methyl-N-{[2- (trifluoromethoxy)phenyl](deutero)- methyl}pyridine-3-carboxamide [Example 295]”: the figures for the IC50 in assay [1] (setting [3]) and in assay [2] were 10 nM and 23 nM, respectively.

On to `CC(=O)Nc1cn2nc(-c3cncc(NS(=O)(=O)c4ccc(F)cc4)c3)ccc2n1` [Example 11 in US2009/0163489, reference compound], for which, in assay [1] (comparison compound of US2009/0163489, read-out: IC50 in the RIPK1 assay), the IC50 worked out at 11000 nM.

On to `CC(=O)Nc1cn2nc(-c3cc(C(=O)NCc4cccnc4OCC4CCC4)c(C)nc3C)ccc2n1` [Example 86, N-{[2-(cyclobutylmethoxy)pyridin-3-yl]methyl}-5-{2-acetamidoimidazo[1,2-b]pyridazin-6-yl}-2,6-dimethylpyridine-3-carboxamide], for which the half-inhibitory concentration (IC50) in assay [2] was 27 nM.

As for `COc1ncc(-c2ccc3nc(NC(C)=O)cn3n2)cc1C(=O)NCc1ncccc1OCC(F)(F)F` [Example 101, 5-{2-acetamidoimidazo[1,2-b]pyridazin-6-yl}-2-methoxy-N-{[3-(2,2,2-trifluoroethoxy)pyridin-2-yl]methyl}pyridine-3-carboxamide, 2 TFA], in assay [2], the IC50 was determined as 248 nM.

For the molecule `COc1ncc(-c2ccc3nc(NC(C)=O)cn3n2)cc1C(=O)NCc1cc(F)ccc1C(=O)N1CCC(F)(F)C1` [Example 323, N-{[2-(3,3-difluoropyrrolidine-1-carbonyl)-5-fluorophenyl]methyl}-5-{2-acetamidoimidazo[1,2-b]pyridazin-6-yl}-2-methoxypyridine-3-carboxamide], the IC50 in assay [2] (Homo sapiens) is 9 nM.

Consider `COc1ncc(-c2ccc3nc(NC(C)=O)cn3n2)cc1C(=O)NCc1cc(F)cc(F)c1C(=O)N1CCC(F)(F)C1` [Example 324, N-{[2-(3,3-difluoropyrrolidine-1-carbonyl)-3,5-difluorophenyl]methyl}-5-{2-acetamidoimidazo[1,2-b]pyridazin-6-yl}-2-methoxypyridine-3-carboxamide], for which the IC50 in assay [2] (Homo sapiens) is 3 nM.

In the case of `Cc1ncc(-c2ccc3nc(NC(=O)CN4CCOCC4)cn3n2)cc1C(=O)N[C@H](C)c1cc(OC(F)(F)F)ccc1F` [Example 337, N-[(1R)-1-[2-fluoro-5-(trifluoromethoxy)-phenyl]ethyl]-2-methyl-5-{2-[2-(morpholin-4-yl)acetamido]imidazo[1,2-b]pyridazin-6-yl}pyridine-3-carboxamide], in assay [2] (Homo sapiens), the IC50 turned out to be 11 nM.

With `Cc1ncc(-c2ccc3nc(NC(=O)CN4CCOCC4)cn3n2)cc1C(=O)NCC[C@@H](O)c1ccc(Cl)cc1` [Example 345, N-[(3R)-3-(4-chlorophenyl)-3-hydroxypropyl]-2-methyl-5-{2-[2-(morpholin-4-yl)acetamido]imidazo[1,2-b]pyridazin-6-yl}pyridine-3-carboxamide], the IC50 in assay [2] (Homo sapiens) amounted to 44 nM.

As for `Cc1ncc(-c2ccc3nc(NC(=O)CN4CCOCC4)cn3n2)cc1C(=O)NCC[C@H](O)c1ccc(Cl)cc1` [Example 346, N-[(3S)-3-(4-chlorophenyl)-3-hydroxypropyl]-2-methyl-5-{2-[2-(morpholin-4-yl)acetamido]imidazo[1,2-b]pyridazin-6-yl}pyridine-3-carboxamide], the IC50 in assay [2] (Homo sapiens) was 82 nM.

In the case of `CC(=O)Nc1cn2nc(-c3cc(F)c(C)c(C(=O)NCc4cc(-c5cnn(C)c5)ccc4F)c3)ccc2n1` [Example 358, 5-(2-acetamidoimidazo[1,2-b]pyridazin-6-yl)-3-fluoro-N-(2-fluoro-5-(1-methyl-1H-pyrazol-4-yl)benzyl)-2-methylbenzamide], the IC50 in assay [2] (Homo sapiens) stood at 49 nM.

For the molecule `CC(=O)Nc1cn2nc(-c3c(F)c(F)cc(C(=O)NCc4cc(C(F)(F)F)ccc4F)c3F)ccc2n1` [Example 369, 3-{2-acetamidoimidazo [1,2-b]pyridazin-6-yl}-2,4,5-trifluoro-N-{[2-fluoro-5-(trifluoromethyl)phenyl]methyl} benzamide], the IC50 in assay [2] (Homo sapiens) was found to be 61 nM.

For `COc1ccc(-c2ccc3nc(NC(C)=O)cn3n2)c(F)c1C(=O)NCC[C@@H](O)c1ccc(Cl)cc1` [Example 374, N-[(3R)-3-(4-chlorophenyl)-3-hydroxypropyl]-3-{2-acetamidoimidazo [1,2-b]pyridazin-6-yl}-2-fluoro-6-methoxybenzamide], the half-maximal inhibitory concentration (IC50) in assay [2] (Homo sapiens) is 19 nM.

On to `CC(=O)Nc1cn2nc(-c3cc(C(=O)NCc4cc(OC(F)(F)F)ccc4F)c(Cl)cc3C)ccc2n1` [Example 393, 2-chloro-5-{2-acetamidoimidazo [1,2-b]pyridazin-6-yl}-N-{[2-fluoro-5-(trifluoromethoxy)phenyl]methyl}-4-methylbenzamide], for which, in assay [2] (Homo sapiens), the IC50 is 8 nM.

Consider `CC(=O)Nc1cn2nc(-c3ccc(C)c(C(=O)Nc4cnn(Cc5ccccc5)c4)c3)ccc2n1` [Example 399, N-(1-benzyl-1H-pyrazol-4-yl)-5-{2-acetamidoimidazo [1,2-b]pyridazin-6-yl}-2-methylbenzamide], for which the IC50 in assay [2] (Homo sapiens) is 5 nM.

Regarding `CC(=O)Nc1cn2nc(-c3cc(C(=O)NCC[C@@H](O)c4ccc(Cl)cc4)c(C)cc3F)ccc2n1` [Example 415, N-[(3R)-3-(4-chlorophenyl)-3-hydroxypropyl]-5-{2-acetamidoimidazo[1,2-b]pyridazin-6-yl}-4-fluoro-2-methylbenzamide], the IC50 in assay [2] (Homo sapiens) came out at 4 nM.

As to `COc1ccc(-c2ccc3nc(NC(C)=O)cn3n2)cc1C(=O)NCc1cc(OC(F)(F)F)ccc1F` [Example 418, 5-{2-acetamidoimidazo [1,2-b]pyridazin-6-yl}-N-{[2-fluoro-5-(trifluoromethoxy)phenyl]methyl}-2-methoxybenzamide], the IC50 in assay [2] (Homo sapiens) came to 26 nM.

Consider `CC(=O)Nc1cn2nc(-c3c(F)ccc(C(=O)N[C@H](C)c4cc(C(F)(F)F)ccc4F)c3F)ccc2n1` [Example 423, 3-{2-acetamidoimidazo [1,2-b]pyridazin-6-yl}-2,4-difluoro-N-[(1R)-1-[2-fluoro-5-(trifluoromethyl)phenyl]ethyl] benzamide], for which the IC50 in assay [2] (Homo sapiens) stood at 109 nM.

Turning to `CC(=O)Nc1cn2nc(-c3cc(C(=O)NCc4cc(OC(F)(F)F)ccc4F)ccc3C)ccc2n1` [Example 433, 3-{2-acetamidoimidazo [1,2-b]pyridazin-6-yl}-N-{[2-fluoro-5-(trifluoromethoxy)phenyl]methyl}-4-methylbenzamide], the half-inhibitory concentration (IC50) in assay [2] (Homo sapiens) is 34 nM.

Values taken from US11440913B2, “Aminoimidazopyridazines as kinase inhibitors” (BRISTOL-MYERS SQUIBB COMPANY, priority 2017, dated 2022).
